Legend:
Assay type in all cases: in vivo
[1] = test system: winter barley (HORVX, Hordeum vulgare); experiment: Test F mixtures with safener cloquintocet-mexyl, pre-/postemergence plant response; details: for HORVX Obsd. (observed effect) plant response rating, scale 0 to 100: applied alone
Excerpt: (§1) This test evaluated the effect of mixtures of Compound 3, Compound 11, or Compound 12 with the commercial crop safener cloquintocet-mexyl on three plant species. Seeds of test plants consisting of winter wheat (TRZAW, Triticum aestivum), winter barley (HORVX, Hordeum vulgare), and wild oat (AVEFA, Avena fatua) (a weed) were planted into a blend of loam soil and sand and treated preemergence with a directed soil spray using test chemicals formulated in a non-phytotoxic solvent mixture that included a surfactant. At the same time, plants selected from these crop and weed species were treated with postemergence applications of the test chemicals formulated in the same manner. Plants ranged in height from 2 to 18 cm (1- to 4-leaf stage) for postemergence treatments.
(§2) Plants were grown in a greenhouse using supplemental lighting to maintain a photoperiod of about 16 hours; daytime and nighttime temperatures were about 24-30° C. and 19-21° C., respectively. Balanced fertilizer was applied through the watering system. Treatments consisted of Compound 3, Compound 11, or Compound 12 and the above mentioned safener alone and in combination using a spray volume of 457 L/ha. Each treatment was replicated three times. Treated plants and controls were maintained in a greenhouse for 14 to 21 days, after which time all treated plants were compared to controls and visually evaluated. Plant response ratings were calculated as the means of the three replicates and are summarized in Tables F1 to F6, and are based on a scale of 0 to 100 where 0 is no effect and 100 is complete control. Because cloquintocet-mexyl alone caused no injury at the rates tested, the expected effect of a mixture of Compound 3 with cloquintocet-mexyl is the same as the observed effect of Compound 3 applied alone.

[2] = test system: wild oat (AVEFA, Avena fatua); experiment: as above; details: for AVEFA Obsd. (observed effect) plant response rating, scale 0 to 100: applied alone
Excerpt: as §1, §2

[3] = test system: winter wheat (TRZAW, Triticum aestivum); experiment: as above; details: for TRZAW Obsd. (observed effect) plant response rating, scale 0 to 100: applied alone
Excerpt: as §1, §2

[4] = test system: winter barley (HORVX, Hordeum vulgare); experiment: Test G mixtures of Compound 26 with crop safeners, postemergence plant response; details: applied alone, 125 g a.i./ha
Protocol: (§3) This test evaluated the effect of mixtures of Compound 26 with commercial crop safeners cloquintocet-mexyl, mefenpyr-diethyl, and fenchlorazole-ethyl on three plant species. Seeds of winter wheat (TRZAW, Triticum aestivum), winter barley (HORVX, Hordeum vulgare), and wild oat (AVEFA, Avena fatua) (a weed) were planted into a silt loam soil. Plants from these seeds were treated postemergence using test chemicals formulated in a non-phytotoxic solvent mixture that included a surfactant. Plants ranged in height from 6 to 10 cm (2- to 3-leaf stage).
(§4) Plants were grown in a greenhouse using supplemental lighting to maintain a photoperiod of about 14 hours; daytime and nighttime temperatures were about 22-26° C. and 15-19° C., respectively. Balanced fertilizer was applied through the watering system. Treatments consisted of Compound 26 and the above mentioned safeners alone and in combination using a spray volume of 281 L/ha. Each treatment was replicated four times. Treated plants and controls were maintained in a greenhouse for 15 days, after which time all treated plants were compared to controls and visually evaluated. Plant response ratings were calculated as the means of the four replicates based on a scale of 0 to 100 where 0 is no effect and 100 is complete control and are summarized in Tables G1 to G3. Because the safeners alone caused no injury at the rates tested, the expected effect of a mixture of Compound 26 with a safener is the same as the observed effect of Compound 26 alone.
(§5) The highest application rate of each safener was tested alone to confirm the absence of herbicidal activity on the test species when appled postemergence at 125 g ai/ha. Therefore, an extrapolated result of zero for each safener alone at 16, 31, or 62 g ai/ha was used to calculate the mixture response of Compound 26 and these safener application rates.

[5] = test system: wild oat (AVEFA, Avena fatua); experiment: as above; details: applied alone, 125 g a.i./ha
Protocol: as §3, §4, §5

[6] = test system: winter wheat (TRZAW, Triticum aestivum); experiment: as above; details: applied alone, 125 g a.i./ha
Protocol: as §3, §4, §5

For CCCCCC(C)OC(=O)COc1ccc(Cl)c2cccnc12 (stereo not drawn) [cloquintocet-mexyl, reference compound], the “HORVX Obsd. (observed effect) plant response rating, scale 0 to 100” value ([1]; postemergence, 4 g a.i./ha) was 0, the “HORVX Obsd. (observed effect) plant response rating, scale 0 to 100” value ([1]; postemergence, 8 g a.i./ha) was 0 and the “HORVX Obsd. (observed effect) plant response rating, scale 0 to 100” value ([1]; preemergence, 4 g a.i./ha) was 0. The “HORVX Obsd. (observed effect) plant response rating, scale 0 to 100” value ([1]; preemergence, 8 g a.i./ha) was 0, the “plant response (injury), safener alone” value ([1]; winter barley, safener alone at the rates tested, pre- and postemergence, 14 to 21 days) was “no injury” and the “AVEFA Obsd. (observed effect) plant response rating, scale 0 to 100” value ([2]; postemergence, 4 g a.i./ha) was 0. For the same compound, the “AVEFA Obsd. (observed effect) plant response rating, scale 0 to 100” value ([2]; postemergence, 8 g a.i./ha) was 0, the “AVEFA Obsd. (observed effect) plant response rating, scale 0 to 100” value ([2]; preemergence, 4 g a.i./ha) was 0 and the “AVEFA Obsd. (observed effect) plant response rating, scale 0 to 100” value ([2]; preemergence, 8 g a.i./ha) was 0. The “plant response (injury), safener alone” value ([2]; wild oat, safener alone at the rates tested, pre- and postemergence, 14 to 21 days) was “no injury”, the “TRZAW Obsd. (observed effect) plant response rating, scale 0 to 100” value ([3]; postemergence, 4 g a.i./ha) was 0 and the “TRZAW Obsd. (observed effect) plant response rating, scale 0 to 100” value ([3]; postemergence, 8 g a.i./ha) was 0. The “TRZAW Obsd. (observed effect) plant response rating, scale 0 to 100” value ([3]; preemergence, 4 g a.i./ha) was 0, the “TRZAW Obsd. (observed effect) plant response rating, scale 0 to 100” value ([3]; preemergence, 8 g a.i./ha) was 0 and the “plant response (injury), safener alone” value ([3]; winter wheat, safener alone at the rates tested, pre- and postemergence, 14 to 21 days) was “no injury”. For the same compound, the “HORVX Obsd. (observed effect) plant response rating, scale 0 to 100” value [4] was 0, the “AVEFA Obsd. (observed effect) plant response rating, scale 0 to 100” value [5] was 0 and the “TRZAW Obsd. (observed effect) plant response rating, scale 0 to 100” value [6] was 0.

From patent US20100267561A1, “HERBICIDAL PYRIDAZINONE DERIVATIVES” (priority 2007, published 2010)
